The assay addresses T1, hCA IX (Homo sapiens, UniProt Q16790).
T1 construct: gene CA9
Nature of the assay: stopped-flow CO2 hydration. The assay is classed as biochemical. The text has this:
stopped-flow CO2 hydration on hCA IX
Compound `CCN(CC)CC(=O)N(CCc1ccc(S(N)(=O)=O)cc1)Cc1ccccc1` [compound 18, 18] had a Ki of 30.6 nM.

`CCN(CC(=O)N(CCc1ccc(S(N)(=O)=O)cc1)Cc1ccccc1)Cc1ccccc1` [compound 19, 19] showed an inhibition constant (Ki) of 119 nM. The figure for `NS(=O)(=O)c1ccc(CCN(Cc2ccccc2)C(=O)CN(Cc2ccccc2)Cc2ccccc2)cc1` [compound 20, 20] is 234 nM.

`CCCCCN(CCCCC)CC(=O)N(CCc1ccc(S(N)(=O)=O)cc1)Cc1ccccc1` [compound 21, 21] gave a Ki of 48.5 nM. The figure for `CCCCCCN(CCCCCC)CC(=O)N(CCc1ccc(S(N)(=O)=O)cc1)Cc1ccccc1` [compound 22, 22] is 123 nM. The figure for `CCCCCCCCN(CCCCCCCC)CC(=O)N(CCc1ccc(S(N)(=O)=O)cc1)Cc1ccccc1` [compound 23, 23] is 271 nM.

As for `CCN(CC)CCC(=O)N(CCc1ccc(S(N)(=O)=O)cc1)Cc1ccccc1` [compound 24, 24], the affinity corresponds to a Ki of 31.1 nM. Then `CCN(CCC(=O)N(CCc1ccc(S(N)(=O)=O)cc1)Cc1ccccc1)Cc1ccccc1` [compound 25, 25], with 166 nM; and `NS(=O)(=O)c1ccc(CCN(Cc2ccccc2)C(=O)CCN(Cc2ccccc2)Cc2ccccc2)cc1` [compound 26, 26], with 106 nM. The figure for `CCCCCN(CCCCC)CCC(=O)N(CCc1ccc(S(N)(=O)=O)cc1)Cc1ccccc1` [compound 27, 27] is 134 nM; for `CCCCCCN(CCCCCC)CCC(=O)N(CCc1ccc(S(N)(=O)=O)cc1)Cc1ccccc1` [compound 28, 28] it is 94.2 nM; for `CCCCCCCCN(CCCCCCCC)CCC(=O)N(CCc1ccc(S(N)(=O)=O)cc1)Cc1ccccc1` [compound 29, 29] it is 147 nM. `CCCCCCN(CCCCCC)CCC(=O)N(CCc1ccccc1)CCc1ccc(S(N)(=O)=O)cc1` [compound 30, 30] had a Ki of 42.9 nM. Turning to `CCCCCCN(CCCCCC)CC(=O)N(CCc1ccc(S(N)(=O)=O)cc1)Cc1ccc2ccccc2c1` [compound 32, 32], the Ki stood at 296 nM. The figure for `CCCCCCN(CCCCCC)CC(=O)N(CCC#N)CCc1ccc(S(N)(=O)=O)cc1` [compound 33, 33] is 154 nM; for `N#CCCN(CCc1ccccc1)CC(=O)N(CCc1ccccc1)CCc1ccc(S(N)(=O)=O)cc1` [compound 34, 34] it is 32.3 nM; for `N#CCCN(CCc1ccccc1)CC(=O)N(CCc1ccc(S(N)(=O)=O)cc1)Cc1ccco1` [compound 35, 35] it is 95.1 nM. For the compound `N#CCCN(CCc1ccccc1)CC(=O)N(CCc1ccc(S(N)(=O)=O)cc1)Cc1ccc(F)cc1` [compound 36, 36], affinity was put at a Ki of 3 nM. `N#CCCN(CCc1ccccc1)CC(=O)N(CCc1ccc(S(N)(=O)=O)cc1)Cc1ccc2ccccc2c1` [compound 37, 37] yielded an inhibition constant Ki of 151 nM. Compound `N#CCCN(CCc1ccccc1)CC(=O)N(CCc1ccc(S(N)(=O)=O)cc1)Cc1ccc([N+](=O)[O-])cc1` [compound 38, 38] displayed a Ki of 202 nM. `N#CCCN(CCc1ccccc1)CC(=O)N(CCC#N)CCc1ccc(S(N)(=O)=O)cc1` [compound 39, 39] returned a Ki of 19.3 nM. `NCCCN(CCc1ccccc1)CC(=O)N(CCc1ccccc1)CCc1ccc(S(N)(=O)=O)cc1` [compound 40, 40] came in with a Ki of 4 nM. Take `NCCCN(CCc1ccccc1)CC(=O)N(CCc1ccc(S(N)(=O)=O)cc1)Cc1ccco1` [compound 41, 41]: affinity was put at a Ki of 11.1 nM.

In turn, `NCCCN(CCc1ccccc1)CC(=O)N(CCc1ccc(S(N)(=O)=O)cc1)Cc1ccc(F)cc1` [compound 42, 42] registered a Ki of 4.8 nM. For the compound `NCCCN(CCc1ccccc1)CC(=O)N(CCc1ccc(S(N)(=O)=O)cc1)Cc1ccc2ccccc2c1` [compound 43, 43], the Ki came to 34.3 nM. For `CCCCCCN(CCCCCC)CC(=O)N(CCCN)CCc1ccc(S(N)(=O)=O)cc1` [compound 44, 44], the Ki was determined as 116 nM.

In turn, `NS(=O)(=O)c1ccc(CCN(CCc2ccccc2)C(=O)CN(CCC(=O)O)CCc2ccccc2)cc1` [compound 45, 45] yielded a Ki of 7.5 nM. Then `NS(=O)(=O)c1ccc(CCN(Cc2ccco2)C(=O)CN(CCC(=O)O)CCc2ccccc2)cc1` [compound 46, 46], with 1.2 nM; and `NS(=O)(=O)c1ccc(CCN(Cc2ccc(F)cc2)C(=O)CN(CCC(=O)O)CCc2ccccc2)cc1` [compound 47, 47], with 11.1 nM.

For `NS(=O)(=O)c1ccc(CCN(Cc2ccc3ccccc3c2)C(=O)CN(CCC(=O)O)CCc2ccccc2)cc1` [compound 48, 48], affinity was put at a Ki of 22.1 nM. The figure for `CCCCCCN(CCCCCC)CC(=O)N(CCC(=O)O)CCc1ccc(S(N)(=O)=O)cc1` [compound 49, 49] is 68.3 nM.

Regarding `CCCCCCCC/C=C\CCCCCCCCNC(=O)CCN(CCc1ccccc1)CC(=O)N(CCc1ccc(S(N)(=O)=O)cc1)Cc1ccco1` [compound 50, 50], the affinity corresponds to a Ki of 61.1 nM.

A word on the Ki: it is a dissociation constant, usually derived from enzyme kinetics or from competition with a known ligand.

For the origin of these results see PMC8942523, “The three-tails approach as a new strategy to improve selectivity of action of sulphonamide inhibitors against tumour-associated carbonic anhydrase IX and XII” (Journal of Enzyme Inhibition and Medicinal Chemistry, 2022).
